Reference: PMC3752901 (Clinical cancer research : an official journal of the …, 2013)
Where two headings read alike, the source gives them in different places.

Assays:
mOct1 = target: T1, mOct1 (Mus musculus, UniProt O08966); assay: Uptake in HEK293 cells expressing mOct1; assay type: in vitro ADME; conditions: HEK293, 1 μM
T1 sequence (O08966 1-556): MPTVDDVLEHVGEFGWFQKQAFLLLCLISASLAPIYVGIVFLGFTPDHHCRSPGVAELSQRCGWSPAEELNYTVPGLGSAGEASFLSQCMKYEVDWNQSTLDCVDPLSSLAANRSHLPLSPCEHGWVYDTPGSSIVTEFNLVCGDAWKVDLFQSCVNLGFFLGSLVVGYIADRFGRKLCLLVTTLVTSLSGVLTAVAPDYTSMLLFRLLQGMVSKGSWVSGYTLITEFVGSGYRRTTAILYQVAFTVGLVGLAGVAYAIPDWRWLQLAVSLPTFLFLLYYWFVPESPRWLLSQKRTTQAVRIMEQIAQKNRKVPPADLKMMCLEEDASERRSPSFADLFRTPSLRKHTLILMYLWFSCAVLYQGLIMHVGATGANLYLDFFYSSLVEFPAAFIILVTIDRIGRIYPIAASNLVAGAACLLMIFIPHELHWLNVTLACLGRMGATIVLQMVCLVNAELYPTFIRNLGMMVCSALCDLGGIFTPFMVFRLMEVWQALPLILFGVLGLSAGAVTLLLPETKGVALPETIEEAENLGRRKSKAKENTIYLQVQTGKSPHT

Blood cell partitioning = assay type: in vitro ADME, mouse
[1] = human, oral administration; cited from earlier work
ABCC3 (MRP3) = ABCC3 (MRP3) (Homo sapiens, UniProt O15438); assay: Uptake into inside-out Sf9 vesicles expressing ABCC3; assay type: in vitro ADME; conditions: same experimental conditions as ABCC4 vesicles
[2] = cited from earlier work
mOct2 = target: T2, mOct2 (Mus musculus, UniProt O70577); assay: Uptake in HEK293 cells expressing mOct2; assay type: in vitro ADME; conditions: HEK293, 1 μM
T2 sequence (O70577 1-553): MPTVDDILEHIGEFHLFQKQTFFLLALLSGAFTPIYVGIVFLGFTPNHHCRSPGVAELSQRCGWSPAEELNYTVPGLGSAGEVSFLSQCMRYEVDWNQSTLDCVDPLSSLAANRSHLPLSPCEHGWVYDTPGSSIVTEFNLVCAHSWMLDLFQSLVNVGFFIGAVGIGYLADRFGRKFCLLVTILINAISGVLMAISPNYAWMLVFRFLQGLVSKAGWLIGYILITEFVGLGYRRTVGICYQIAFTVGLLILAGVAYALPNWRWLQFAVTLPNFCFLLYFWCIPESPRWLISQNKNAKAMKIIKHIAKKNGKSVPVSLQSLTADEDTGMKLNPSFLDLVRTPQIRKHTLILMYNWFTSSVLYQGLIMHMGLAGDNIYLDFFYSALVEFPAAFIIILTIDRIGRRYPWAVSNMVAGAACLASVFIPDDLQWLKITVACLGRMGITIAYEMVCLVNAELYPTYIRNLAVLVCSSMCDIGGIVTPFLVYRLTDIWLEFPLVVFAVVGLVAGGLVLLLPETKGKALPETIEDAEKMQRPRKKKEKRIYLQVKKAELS

ABCC3 (MRP3), sequence (O15438 whole entry): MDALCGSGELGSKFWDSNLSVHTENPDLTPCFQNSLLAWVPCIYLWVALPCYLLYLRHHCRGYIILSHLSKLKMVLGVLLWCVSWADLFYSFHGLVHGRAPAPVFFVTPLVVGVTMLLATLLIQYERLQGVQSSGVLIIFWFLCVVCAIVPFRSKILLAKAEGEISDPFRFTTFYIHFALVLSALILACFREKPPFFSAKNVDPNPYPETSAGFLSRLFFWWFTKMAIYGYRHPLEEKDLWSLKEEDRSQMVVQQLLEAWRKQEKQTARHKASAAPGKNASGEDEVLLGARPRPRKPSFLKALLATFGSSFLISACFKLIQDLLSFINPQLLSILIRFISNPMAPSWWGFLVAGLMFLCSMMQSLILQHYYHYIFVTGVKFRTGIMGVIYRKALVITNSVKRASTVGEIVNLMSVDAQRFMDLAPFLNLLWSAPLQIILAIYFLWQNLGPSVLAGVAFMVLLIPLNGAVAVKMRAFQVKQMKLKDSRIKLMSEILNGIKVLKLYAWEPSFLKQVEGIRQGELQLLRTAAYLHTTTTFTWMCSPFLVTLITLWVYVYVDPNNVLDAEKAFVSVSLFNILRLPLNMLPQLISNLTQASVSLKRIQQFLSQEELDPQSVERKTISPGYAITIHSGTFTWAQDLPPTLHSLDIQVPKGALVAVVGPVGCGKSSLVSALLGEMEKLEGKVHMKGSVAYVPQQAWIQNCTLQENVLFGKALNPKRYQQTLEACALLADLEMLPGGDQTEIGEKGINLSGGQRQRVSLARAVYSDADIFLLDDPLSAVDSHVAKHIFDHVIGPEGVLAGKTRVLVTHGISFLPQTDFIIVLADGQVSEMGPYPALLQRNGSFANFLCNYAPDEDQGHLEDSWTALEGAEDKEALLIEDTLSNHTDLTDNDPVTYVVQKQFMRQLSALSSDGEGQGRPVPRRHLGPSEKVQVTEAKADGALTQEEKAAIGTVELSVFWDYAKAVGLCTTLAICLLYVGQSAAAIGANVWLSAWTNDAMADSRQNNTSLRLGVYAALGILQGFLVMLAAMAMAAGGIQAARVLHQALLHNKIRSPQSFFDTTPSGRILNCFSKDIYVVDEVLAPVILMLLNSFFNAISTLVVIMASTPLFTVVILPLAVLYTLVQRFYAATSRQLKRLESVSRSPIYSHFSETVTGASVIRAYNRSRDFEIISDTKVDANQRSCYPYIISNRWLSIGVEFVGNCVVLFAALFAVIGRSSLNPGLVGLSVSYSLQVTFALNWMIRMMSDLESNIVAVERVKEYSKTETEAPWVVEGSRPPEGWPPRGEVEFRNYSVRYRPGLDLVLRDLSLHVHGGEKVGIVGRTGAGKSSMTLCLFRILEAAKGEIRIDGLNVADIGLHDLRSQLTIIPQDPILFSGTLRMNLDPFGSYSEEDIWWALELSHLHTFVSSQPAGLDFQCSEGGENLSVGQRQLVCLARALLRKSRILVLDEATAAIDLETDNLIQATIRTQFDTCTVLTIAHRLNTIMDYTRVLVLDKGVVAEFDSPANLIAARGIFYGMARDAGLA

With `Cc1nc(Nc2ncc(C(=O)Nc3c(C)cccc3Cl)s2)cc(N2CCN(CCO)CC2)n1` [dasatinib, Dasatinib] the “intracellular accumulation on overexpression of Oct1” value (mOct1) was “did not alter intracellular accumulation”, the Blood cell partitioning (Blood cell partitioning; Abcc4(−/−) mice) was 36.1 ± 2.86% and the Blood cell partitioning (Blood cell partitioning; wildtype mice) was 33.0 ± 1.04%. For the same compound, the “unchanged drug as share of the dose recovered in feces” value [1] was 19%, the “unchanged drug as share of the dose recovered in urine” value [1] was “less than 1%” and the “accumulation in ABCC3 vesicles compared to control” value (ABCC3 (MRP3)) was 1.3 fold. The “coefficient of variation in AUC” value ([2]; adult patients) was over 50%, the “coefficient of variation in AUC” value ([2]; pediatric patient population) was at most 46% and the “intracellular accumulation on overexpression of Oct2” value (mOct2) was “did not alter intracellular accumulation”.
